Source: patent US5837548A, “Treatment of inflammation by inhibition of lipid body formation” (Beth Israel Hospital, priority 1995, dated 1998)

Legend:
[1] = tested on: human neutrophils (LTB4 production); assay: LTB4 production by human neutrophils (priming, A23187 stimulation, ELISA); type: cell-based
Procedure: (§1) FIG. 1A is a graph illustrating the effect of arachidonic acid (AA) and oleic acid (OA) on induction of lipid body formation (black) and priming effects (white) for enhanced leukotriene B4 (LTB4) by human neutrophils. Neutrophils (10^6 /mL) were stimulated for one hour with arachidonic acid (3.7, 7.5, 15 μM) or oleic acid (2.5, 5, 10 μM). Lipid bodies were enumerated using light microscopy following osmium staining. The concentration of LTB4 in the supernatant was measured by ELISA after incubation with A23187 (0.5 μM) for 15 minutes at 37° C. Data are expressed as mean from 2-3 independent assays performed in duplicate.
(§2) FIG. 5A is a graph showing that aspirin inhibits cis-unsaturated fatty acid-induced priming for enhanced leukotriene B4 (LTB4) production in human neutrophils. Striped and open columns represent vehicle treated cells and aspirin treated cells, respectively. Cells (10^6 /mL) were pretreated with aspirin (10 μg/mL) or vehicle for one hour and then stimulated with OA (10 μM) or vehicle for one hour. The concentration of LTB4 in the supernatant was measured by ELISA after incubation with A23187 (0.5 μM) for 15 minutes at 37° C. Data are expressed as mean from 2-4 independent assays performed in duplicate. The statistically significant difference between the vehicle alone and the agonist is represented by a cross. Statistically significant differences due to pretreatment with aspirin are indicated by an asterisk.
(§3) After the incubation time, a sample was taken for lipid body enumeration and the cells were washed in Ca^++ /Mg^++ free HBSS. Leukocytes were resuspended in 1 mL of HBSS containing Ca^++ /Mg^++ and then stimulated with A23187 (0.5 μM) for 15 min. The reaction was stopped on ice, and the samples were centrifuged at 1500 rpm for 10 min at 4° C. The concentrations of PGE2, LTB4, and LTC4 in the supernatants were assayed by ELISA according to the manufacturer's instructions (Cayman, Ann Arbor, Mich.).

[2] = tested on: wild-type mouse neutrophils; assay: lipid body formation in wild-type mouse neutrophils; type: cell-based; settings: AA 3.7-15 μM or OA 2.5-10 μM
[3] = tested on: peritoneal macrophages from wild type mice; assay: lipid body formation in peritoneal macrophages from wild type mice; type: cell-based, mouse; settings: for induction of lipid bodies in macrophages: wild-type mouse, AA 3.7-15 μM or OA 2.5-10 μM
Procedure: (§4) FIG. 4 is a graph illustrating the effects of arachidonic acid and oleic acid on lipid body formation in peritoneal macrophages from wild type (+/+) and cyclooxygenase-1 knockout (-/-) mice. The agonists AA and OA are represented by the square and circle symbols, respectively. The closed symbols represent the wild type mice; the open symbols represent the cyclooxygenase-1 knockout mice. Macrophages (10^6 /mL) were incubated with the agonists AA and OA at varying concentrations for an hour. Lipid bodies were enumerated using light microscopy following osmium staining. Each point represents the mean±SEM from fifty consecutively scanned macrophages.
(§5) Cyclooxygenase-1 and cyclooxygenase-2 knockout mice were generated as recently described (Morham et al., Cell 83:473-482 (1995); Langenbach et al., Cell 83:483-492 (1995)). All experiments were carried out with male 8-12 week old mice. Macrophages from cyclooxygenase genetically deficient mice and wild-type litter mates were obtained by lavaging the peritoneal cavity with 5 mL of cold RPMI containing heparin (20 IU/mL).
(§6) ^1 Peritoneal macrophages from wild type and COX 1 knockout mice were
(§7) pretreated with the NSAID or vehicle for 1h and then stimulated with
(§8) arachidonic acid (AA, 15 μM) or vehicle for 1h. Results are mean ±
(§9) SEM from fifty consecutively counted macrophages. The statistically

[4] = tested on: macrophages from cyclooxygenase-2 deficient mice; assay: lipid body formation in macrophages from cyclooxygenase-2 deficient mice; type: cell-based, mouse; settings: AA 3.7-15 μM or OA 2.5-10 μM
Procedure: as §5

[5] = tested on: peritoneal macrophages from COX 1 knockout mice; assay: lipid body formation in peritoneal macrophages from cyclooxygenase-1 knockout mice; type: cell-based, mouse; settings: for induction of lipid body formation in macrophages: cyclooxygenase-1 deficient mice, AA 3.7-15 μM or OA 2.5-10 μM
Procedure: as §4, §5, §6, §7, §8, §9

[6] = tested on: human eosinophils (LTC4 production); assay: LTC4 production by human eosinophils (priming, A23187 stimulation, ELISA); type: cell-based
Procedure: as §1, with “2A” for “1A”, “C4 (LTC4)” for “B4 (LTB4)”, “eosinophils. Eosinophils” for “neutrophils. Neutrophils”, “LTC4” for “LTB4”, “2” for “2-3”
as §2, with “5B” for “5A”, “C4 (LTC4)” for “B4 (LTB4)”, “eosinophils.” for “neutrophils.”, “LTC4” for “LTB4”
as §3

[7] = tested on: human eosinophils (PGE2 production); assay: PGE2 production by human eosinophils (priming, A23187 stimulation, ELISA); type: cell-based; settings: 10 μg/mL pretreatment
Procedure: as §1, with “2B” for “1A”, “prostaglandin E2 (PGE2)” for “leukotriene B4 (LTB4)”, “eosinophils. Eosinophils” for “neutrophils. Neutrophils”, “PGE2” for “LTB4”, “2” for “2-3”
as §3

colorectal cancer = settings: humans taking drug regularly vs persons not taking; cited from earlier work
[8] = Homo sapiens, Neutrophil, 1 h, read-out: fold increase in production of LTB4
[9] = Homo sapiens, Eosinophil, 1 h, read-out: fold increase in production of LTC4
[10] = cells not pre-stimulated with cis-unsaturated fatty acids

SMILES	fold induction at 15 µM [1, 8]	increase in production of LTB4 ([1]; neutrophils)	induction of lipid bodies in neutrophils [2]	lipid bodies (mean ± SEM)/macrophage ([3]; wild type, AA 15 μM alone, 1 h, no NSAID)	induction of lipid bodies in macrophages [3]	induction of lipid body formation in macrophages [4]	lipid bodies (mean ± SEM)/macrophage ([5]; COX 1 knockout, AA 15 μM alone, 1 h, no NSAID)	induction of lipid body formation in macrophages [5]	fold induction at 15 µM [6, 9]	increase in production of LTC4 ([6]; eosinophils)	inhibition of PGE2 production [7]	inhibition of calcium ionophore-induced LTB4 production [1, 10]	inhibition of oleic acid-induced priming for enhanced LTB4 production ([1]; neutrophils, 10 μg/mL, OA 10 μM)	lower risk of developing colorectal cancer (colorectal cancer)	inhibition of calcium ionophore-induced LTC4 production [6, 10]	inhibition of oleic acid-induced priming for enhanced LTC4 production ([6]; eosinophils, 10 μg/mL, OA 10 μM)	fold induction at 10 µM [1, 8]	correlation (r) between number of lipid bodies and priming for enhanced LTB4 release ([1]; oleic acid, leukocytes, p<0.05)	fold induction at 10 µM [6, 9]	correlation (r) between number of lipid bodies and priming for enhanced LTC4 release ([6]; oleic acid, leukocytes, p<0.05)
CCCCC/C=C\C/C=C\C/C=C\C/C=C\CCCC(=O)O [arachidonic acid]	2.3	dose-dependent increase in production	can also be stimulated in vitro to produce lipid bodies	6.8 ± 0.3 lipid bodies/macrophage	can also be stimulated in vitro to produce lipid bodies	induced lipid body formation	7.0 ± 0.5 lipid bodies/macrophage	induced lipid body formation	1.4	dose-dependent increase in production	–	–	–	–	–	–	–	–	–	–
CC(=O)Oc1ccccc1C(=O)O [aspirin]	–	–	–	–	–	–	–	–	–	–	inhibited PGE2 production	failed to inhibit	significantly inhibited	40-50%	failed to inhibit	significantly inhibited	–	–	–	–
CCCCCCCC/C=C\CCCCCCCC(=O)O [oleic acid]	–	dose-dependent increase in production	can also be stimulated in vitro to produce lipid bodies	–	can also be stimulated in vitro to produce lipid bodies	induced lipid body formation	–	induced lipid body formation	–	dose-dependent increase in production	–	–	–	–	–	–	2	0.96	1.7	0.95
